Results from patent US11083716B2 (Achieve Life Sciences, Inc., priority 2019, dated 2021).
Like-named read-outs stand apart in the source and are kept apart here.

Key:
[1] = test system: adults smoking 10+ cigarettes daily
Description: This was a six-arm, multi-center, double-blind, randomized, placebo-controlled study conducted in male or female adults years of age, smoking 10+ cigarettes daily, and willing to set a quit date that is 5-7 days after randomization. […] The study also evaluated the effectiveness of a simplified TID dosing schedule for 1.5 mg and an increased dose of 3.0 mg (using both the commercial titration (COM) and simplified TID dosing schedules).
Study treatment started the day after randomization such that study treatment was initiated prior to the quit date, as shown in FIG. 3.
The primary efficacy endpoint for this study was the percent reduction in the number of cigarettes smoked during treatment, which was calculated as follows:
[formula] where N=total number of cigarettes smoked, B=number of cigarettes smoked at baseline and D=number of days.
The primary outcome (Cigarette Score) and the main secondary abstinence outcomes were subjected to sensitivity analyses. The main secondary abstinence outcomes were the initial quit rate at Week 4 and continued 4-week abstinence through Week 5 to Week 8, confirmed by expired CO of <10 ppm designated as Cess/W5-8/CO Success.
The primary outcome was based on the number of cigarettes smoked on each day from a diary. The Cigarette Score used the diary data for the planned 25 days while on study treatment. Presented are sensitivity analyses for the comparison of the 3.0 mg TID arm and the pooled placebo arm related to variations on the primary analysis of Cigarette Score. The alternative definition of the Cigarette Score featured cigarettes recorded in the diary after the planned quit period of Days 5-7, that is, from Day 8 onward, instead of from Day 1 onward.
Another alterative analysis was based on re-analyses of the primary Cigarette Score and the above alternative Cigarette Score, with a weight related to the standard error of the mean number of cigarettes estimated from the diary entries. The weight used for each subject was 1/(SE)^2, where SE is the standard error of the mean estimate, and this type of weighting, referred to as inverse variance weighting, is used commonly. This weighting gives greater weight to means that are estimated with a smaller SE. A small modification to this definition of weight was necessary, however. In computing 1/(SE)^2, a specific rule was used when SE=0, specifically when all diary entry values were equal. In these cases, the SE was computed as if one and only one of the recorded values was larger by one. It can be shown that when this modification to the data is made SE=1/N, where N is the number of the subjects daily (days) entries.

[2] = biological target: alpha4, beta2 (α4β2) receptors (Homo sapiens, UniProt P17787+P43681); conditions: cited from earlier work
smokers [3] = conditions: cited from earlier work
smokers [4] = conditions: cited from earlier work; remark: listed apart in the source
[5] = Cochrane (n > 7000); cited from earlier work
[6] = 1.5 mg Downward Titration (n = 51)
[7] = 3.0 mg Downward Titration (n = 50)
[8] = end of treatment, 12 weeks (EAGLES)
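Throughout, for TEAE: Abnormal dreams, subjects n (%): multicenter double-blind randomized placebo-controlled trial in adult smokers of 10 or more cigarettes per day, counting subjects with treatment-emergent adverse events per arm.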
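Throughout, for TEAE: At least 1 AE, subjects n (%): multicenter double-blind randomized placebo-controlled trial in adult smokers of 10 or more cigarettes per day, counting subjects with treatment-emergent adverse events per arm.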
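Throughout, for TEAE: Fatigue, subjects n (%): multicenter double-blind randomized placebo-controlled trial in adult smokers of 10 or more cigarettes per day, counting subjects with treatment-emergent adverse events per arm.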
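Throughout, for TEAE: Headache, subjects n (%): multicenter double-blind randomized placebo-controlled trial in adult smokers of 10 or more cigarettes per day, counting subjects with treatment-emergent adverse events per arm.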

Chain of alpha4, beta2 (α4β2) receptors (P43681 29-627 limits assumed): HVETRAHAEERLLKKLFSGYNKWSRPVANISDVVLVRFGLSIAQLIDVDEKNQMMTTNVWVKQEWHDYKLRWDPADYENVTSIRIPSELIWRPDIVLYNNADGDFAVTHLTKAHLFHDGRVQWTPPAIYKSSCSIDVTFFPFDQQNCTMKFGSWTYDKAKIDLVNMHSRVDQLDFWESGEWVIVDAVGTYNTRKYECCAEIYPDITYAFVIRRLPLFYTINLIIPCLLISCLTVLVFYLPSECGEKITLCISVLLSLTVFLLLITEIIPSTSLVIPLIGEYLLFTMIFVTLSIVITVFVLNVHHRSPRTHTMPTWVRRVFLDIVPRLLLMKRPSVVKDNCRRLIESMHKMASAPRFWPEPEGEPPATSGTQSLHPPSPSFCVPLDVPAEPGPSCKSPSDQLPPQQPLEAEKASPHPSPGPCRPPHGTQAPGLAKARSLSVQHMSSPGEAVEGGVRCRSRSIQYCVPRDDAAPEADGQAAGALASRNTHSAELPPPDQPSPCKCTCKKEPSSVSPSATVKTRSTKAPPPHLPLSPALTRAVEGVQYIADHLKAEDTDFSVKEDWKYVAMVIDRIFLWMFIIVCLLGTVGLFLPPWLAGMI
Chain of alpha4, beta2 (α4β2) receptors (P17787 26-502): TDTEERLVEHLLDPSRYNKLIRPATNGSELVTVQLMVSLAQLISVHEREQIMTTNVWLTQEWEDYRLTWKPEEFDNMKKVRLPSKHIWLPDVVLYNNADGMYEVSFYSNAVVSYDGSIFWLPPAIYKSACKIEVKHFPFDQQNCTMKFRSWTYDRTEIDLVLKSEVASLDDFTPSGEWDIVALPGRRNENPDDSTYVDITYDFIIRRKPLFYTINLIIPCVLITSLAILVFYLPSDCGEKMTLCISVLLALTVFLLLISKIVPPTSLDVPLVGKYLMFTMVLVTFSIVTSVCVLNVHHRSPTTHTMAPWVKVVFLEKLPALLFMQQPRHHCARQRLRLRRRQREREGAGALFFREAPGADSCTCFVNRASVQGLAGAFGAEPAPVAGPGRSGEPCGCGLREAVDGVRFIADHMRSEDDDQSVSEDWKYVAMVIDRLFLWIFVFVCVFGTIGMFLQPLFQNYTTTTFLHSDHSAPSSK

With `O=c1cccc2n1C[C@@H]1CNC[C@H]2C1` [cytisine, (−)-Cytisine] the “Reduction in CO (expired)” value ([1]; 1.5 mg TID) was 71%, the “Reduction in CO (expired)” value ([1]; 1.5 mg, titration (COM) schedule) was 78% and the “Reduction in CO (expired)” value ([1]; 3.0 mg TID) was 80%. The “OR, quit rate versus placebo” value ([1]; 3.0 mg TID, 4 weeks off treatment, Table 11) was 5.0, the “OR, quit rate versus placebo” value ([1]; 3.0 mg TID, end of treatment (4 weeks), Tables 9-10) was 6.3 and the “Reduction in CO (expired)” value ([1]; 3.0 mg, titration (COM) schedule) was 71%. For the same compound, the serum cotinine levels ([1]; all cytisine-treated arms, Week 4) was “material reduction”, the “Cigarette Score effect estimate (95% confidence interval), 3.0 mg TID versus pooled placebo” value ([1]; weighted analysis, diary from start of intervention) was −11.8 (−24.4, 0.9) and the “TEAE: Abnormal dreams, subjects n (%)” value [6] was 4 (8%). For the same compound, the “TEAE: At least 1 AE, subjects n (%)” value [6] was 29 (57%), the “TEAE: Fatigue, subjects n (%)” value [6] was 1 (2%) and the “TEAE: Headache, subjects n (%)” value [6] was 1 (2%). For the same compound, the “TEAE: Insomnia, subjects n (%)” value [6] was 3 (6%), the “TEAE: Nausea, subjects n (%)” value [6] was 5 (10%) and the “TEAE: URTI, subjects n (%)” value [6] was 3 (6%). The “TEAE: Abnormal dreams, subjects n (%)” value (1.5 mg TID (n = 52)) was 4 (8%), the “TEAE: At least 1 AE, subjects n (%)” value (1.5 mg TID (n = 52)) was 20 (39%) and the “TEAE: Constipation, subjects n (%)” value (1.5 mg TID (n = 52)) was 1 (2%). The “TEAE: Fatigue, subjects n (%)” value (1.5 mg TID (n = 52)) was 3 (6%), the “TEAE: Headache, subjects n (%)” value (1.5 mg TID (n = 52)) was 6 (12%) and the “TEAE: Insomnia, subjects n (%)” value (1.5 mg TID (n = 52)) was 4 (8%). The “TEAE: Nausea, subjects n (%)” value (1.5 mg TID (n = 52)) was 1 (2%), the “TEAE: URTI, subjects n (%)” value (1.5 mg TID (n = 52)) was 5 (10%) and the “overall safety following dosing” value (1.5 mg or 3.0 mg treatment arms on both schedules) was “no safety concerns”. For the same compound, the “TEAE: Abnormal dreams, subjects n (%)” value [7] was 7 (14%), the “TEAE: At least 1 AE, subjects n (%)” value [7] was 23 (46%) and the “TEAE: Fatigue, subjects n (%)” value [7] was 2 (4%). The “TEAE: Headache, subjects n (%)” value [7] was 1 (2%), the “TEAE: Insomnia, subjects n (%)” value [7] was 4 (8%) and the “TEAE: Nausea, subjects n (%)” value [7] was 3 (6%). The “TEAE: URTI, subjects n (%)” value [7] was 2 (4%), the “TEAE: Abnormal dreams, subjects n (%)” value (3.0 mg TID (n = 50)) was 3 (6%) and the “TEAE: At least 1 AE, subjects n (%)” value (3.0 mg TID (n = 50)) was 21 (42%). For the same compound, the “TEAE: Constipation, subjects n (%)” value (3.0 mg TID (n = 50)) was 3 (6%), the “TEAE: Fatigue, subjects n (%)” value (3.0 mg TID (n = 50)) was 1 (2%) and the “TEAE: Headache, subjects n (%)” value (3.0 mg TID (n = 50)) was 2 (4%). The “TEAE: Insomnia, subjects n (%)” value (3.0 mg TID (n = 50)) was 3 (6%), the “TEAE: Nausea, subjects n (%)” value (3.0 mg TID (n = 50)) was 3 (6%) and the “TEAE: URTI, subjects n (%)” value (3.0 mg TID (n = 50)) was 3 (6%). The “Serious AEs” value (ORCA-1, pooled Cytisinicline (n = 203)) was 0, the “TEAE: Abnormal dreams, subjects n (%)” value (Pooled Cytisinicline (n = 203)) was 18 (9%) and the “TEAE: At least 1 AE, subjects n (%)” value (Pooled Cytisinicline (n = 203)) was 93 (46%). For the same compound, the “TEAE: Constipation, subjects n (%)” value (Pooled Cytisinicline (n = 203)) was 4 (2%), the “TEAE: Fatigue, subjects n (%)” value (Pooled Cytisinicline (n = 203)) was 7 (3%) and the “TEAE: Headache, subjects n (%)” value (Pooled Cytisinicline (n = 203)) was 10 (5%). For the same compound, the “TEAE: Insomnia, subjects n (%)” value (Pooled Cytisinicline (n = 203)) was 14 (7%), the “TEAE: Nausea, subjects n (%)” value (Pooled Cytisinicline (n = 203)) was 12 (6%) and the “TEAE: URTI, subjects n (%)” value (Pooled Cytisinicline (n = 203)) was 13 (6%). The “binding to receptor subtype” value [2] was “bind strongly and preferentially”.
For `c1cnc2cc3c(cc2n1)[C@@H]1CNC[C@H]3C1` [Chantix ®, varenicline], the “Drug-placebo difference in quit rate” value (smokers [3]; 4 weeks off treatment (EAGLES)) is given as 20.7%, the “OR, quit rate versus placebo” value (smokers [3]; 4 weeks off treatment (EAGLES)) is given as 3.5 and the “Quit Rate at End of Treatment” value (smokers [3]; 12 weeks (EAGLES)) is given as 38.0%. The “CAR weeks 9-24 % (95% CI)” value (smokers [3]; Region Non-U.S.) was 27.9 (25.2-30.8) %, the “Versus placebo OR (95% CI), CAR weeks 9-24” value (smokers [3]; Region Non-U.S.) was 2.80 (2.20-3.55) and the “Versus placebo OR (95% CI), CAR weeks 9-24” value (smokers [3]; Region U.S.) was 2.66 (1.99-3.55). The “CAR weeks 9-24 % (95% CI)” value (smokers [3]; Region U.S., listed as Chantix®) was 16%, the “CAR weeks 9-24 % (95% CI)” value (smokers [3]; Region U.S., listed as Varenicline) was 16.1 (14.0-18.4) % and the “overall quit rate at 24 weeks” value (smokers [3]; all regions (EAGLES)) was 22%. The “Drug-placebo difference in quit rate” value (smokers [3]; [8]) was 24.3%, the “OR, quit rate versus placebo” value (smokers [3]; [8]) was 4.0 and the “Quit Rate at 4 Weeks Off Treatment” value (smokers [3]; sustained quit (EAGLES)) was 33.2%. The “Quit Rate at 4 Weeks Treatment” value (smokers [4]; 4 weeks (ONCKEN)) was 37.7%, the “Drug-placebo difference in quit rate” value (smokers [4]; 4 weeks treatment (ONCKEN)) was 21.4% and the “OR, quit rate versus placebo” value (smokers [4]; 4 weeks treatment (ONCKEN)) was 3.1. The Abnormal dreams [5] was 12.5%, the Headache [5] was 12.7% and the Insomnia [5] was 14.2%. The Nausea [5] was 27.8% and the “Serious AEs” value [5] was 3.3%.
In the case of `CN1CCCC1c1cccnc1` (stereo not shown) [nicotine, Nicotine, reference compound], the “binding to receptor subtype” value [2] is given as “bind strongly and preferentially”.
